# Test results reported in ChEMBL document CHEMBL5236600, “Identification of a Novel Potent CYP4Z1 Inhibitor Attenuating the Stemness of Breast Cancer Cells through Lead Optimization” (J Med Chem, 2022).
# Columns and labels:
# Format in all cases: ADME, cell-based
# Cytochrome P450 4Z1 [1] = molecular target: T1, Cytochrome P450 4Z1 (Homo sapiens, UniProt Q86W10); assay: Inhibition of CYP4Z1 in human HEK293T cells using Luciferin-BE as substrate at 10 uM incubated for 30 mins in presence of NADPH by luminescence based assay relative to control; settings: HEK-293T, 0.5 h
# T1 sequence (Q86W10 whole entry): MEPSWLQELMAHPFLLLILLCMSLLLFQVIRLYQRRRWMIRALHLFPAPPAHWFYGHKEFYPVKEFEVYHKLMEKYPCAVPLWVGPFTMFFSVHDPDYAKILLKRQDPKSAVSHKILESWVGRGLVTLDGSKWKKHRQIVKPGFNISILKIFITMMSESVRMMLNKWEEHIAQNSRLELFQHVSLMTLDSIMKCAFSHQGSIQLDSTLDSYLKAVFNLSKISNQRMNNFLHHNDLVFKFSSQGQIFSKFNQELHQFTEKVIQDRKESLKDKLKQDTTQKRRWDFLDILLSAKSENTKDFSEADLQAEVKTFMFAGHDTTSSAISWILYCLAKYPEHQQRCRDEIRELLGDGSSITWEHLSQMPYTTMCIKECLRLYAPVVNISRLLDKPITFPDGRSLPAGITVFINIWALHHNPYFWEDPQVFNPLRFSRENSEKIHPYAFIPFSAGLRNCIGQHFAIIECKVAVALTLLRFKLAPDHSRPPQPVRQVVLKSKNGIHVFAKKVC
# Cytochrome P450 4Z1 [2] = molecular target: T1, Cytochrome P450 4Z1; assay: Inhibition of CYP4Z1 in human HEK293T cells using Luciferin-BE as substrate at 1 uM incubated for 30 mins in presence of NADPH by luminescence based assay relative to control; settings: HEK-293T, 0.5 h
# Cytochrome P450 4Z1 [3] = molecular target: T1, Cytochrome P450 4Z1; assay: Inhibition of CYP4Z1 in human HEK293T cells using Luciferin-BE as substrate incubated for 30 mins in presence of NADPH by luminescence based assay
SMILES,inhibition at 10 µM (Cytochrome P450 4Z1 [1]) [%],inhibition at 1 µM (Cytochrome P450 4Z1 [2]) [%],IC50 (Cytochrome P450 4Z1 [3]) [nM]
CCCCc1ccc(N/C=N/O)cc1,84.3,54.2,
CCOC(=O)Cc1ccc(N/C=N/O)cc1,89.1,80.4,89.7
